Where a name gives a salt, the structure may show the parent alone. Read-outs that look alike come from different tables or passages of the source.
Assays:
rat intestinal S9 = assay: TDF stability in rat intestinal S9 fraction and effect of inhibitors; conditions: rat S9 0.5 mg protein/mL, 10 μM TDF, 37°C, Buffer (no inhibitor)
Experimental: (§3) TDF solutions were prepared at 10 μM in rat or human intestinal S9 fraction (0.5 mg protein/mL). Inhibitors were added to the solutions. […] Control samples included buffer, human S9, or rat S9 solutions with only TDF. Samples were incubated at 37°C for 0, 5, 10, 15, 20, and 30 min and then analyzed by LC-MS/MS for TDF, TFV-ME, TFV, and PP (to quantify stability).
(§4) Samples from S9 incubations were analyzed using the LC-MS/MS conditions described earlier for Caco-2 samples.

[1] = set-up: method as in ref 33 = [33]; 33 Arimilli M. Kim C. Bischofberger N. Dougherty J. Synthesis, in vitro biological evaluation and oral bioavailability of prodrugs of the antiretroviral agent 9-[2-(phosphonomethoxy)-propyl] adenine; conditions: cited from earlier work
[2] = set-up: method as in PMID 9660984; conditions: oral administration of TDF; mice; cited from earlier work
[3] = set-up: method as in PMID 11557462, PMID 15217303; conditions: humans, cited from earlier work
Caco-2 cell monolayers = type: in vitro ADME; conditions: Caco-2 A to B, 10 μM, 120 min, no esterase inhibitor, no P-gp inhibitor
Experimental: (§5) Caco-2 monolayer experiments were performed as previously described[30] with a few modifications. […] Following incubation, the media was replaced to remove dead cells and prevent the formation of multiple layers of cells settling on the filter. Media was then changed every 2-3 days and plates were used in experiments after a total of 21 days from initial seeding. Monolayer integrity was checked before and after each experiment using a Millicell-ERS instrument to determine the TEER across the monolayer and to ensure that there was no substantial change in monolayer integrity throughout the duration of an experiment. On the day of the experiment, the TEER was assessed and the media in each plate was replaced with warm HBSS (pH 7) and allowed to equilibrate (37°C, 30 min). Apical (for apical-to-basolateral [A-to-B] transport) chambers were replaced with HBSS containing 10 μM (final concentration, n = 3 reps) aqueous solution of drug and inhibitors. Samples were taken from both apical and basolateral compartments at 120 min and diluted into an appropriate solvent to allow drug quantitation using LC-MS/MS.
(§6) Samples from permeability assays were also diluted into Mobile Phase A prior to analysis.
(§7) Mobile Phase A was 3/1/96 acetonitrile/acetic acid/water and Mobile Phase B was 96/1/3 acetonitrile/acetic acid/water. Rather than isocratic elution, a gradient program was used. The gradient program held at 0% B for 1 min, ramped to 98% B from 1 to 2 min, held at 98% B from 2 to 3 min, and then returned to initial conditions. Q1/Q3 ions for TFV-ME and TDF were 404.0/270.0 and 520.1/270.0, respectively.

[4] = tested on: porcine pancrelipase (PL); assay: Stability in SGF and FaSSIF with and without PL; type: in vitro ADME; conditions: 37°C
Experimental: Samples were incubated at 37°C and quenched with acetonitrile at 0, 15, 30, 60, 90, and 120 min. For each time point, the % TDF or % TFV-ME remaining was determined by LC-MS/MS as described below.

[5] = pH stability of TDF in SGF and FaSSIF; type: physicochemical; conditions: 1 mM TDF
Experimental: The pH of fasted state simulated intestinal fluid (FaSSIF)[27] was adjusted with 2M NaOH to pH of 6.8, 9, and 11. Simulated gastric fluid (SGF) was used as is at pH 1.2. TDF solutions (100 mM) were prepared in 99% dimethyl sulfoxide. TDF solutions (1 mM) were prepared by 100-fold dilution in FaSSIF and SGF. The pH of the final solution was not measured.
The TDF stability study at pH 1.2 was measured at 37°C in triplicate at 0, 15, 30, 60, 90, and 120 min. The TDF stability studies at pH 6.8, 9, and 11 were measured at 37°C in triplicate at 0, 30, 60, 120, and 240 min. Samples (5 μL) were quenched by diluting 200-fold with 4°C 0.1% formic acid (35% MeOH). These samples were analyzed by liquid chromatography tandem mass spectrometry (LC-MS/MS).

MDCK-MDR1 cells (P-gp) = assay: MDCK-MDR1 efflux studies; type: in vitro ADME, canine; conditions: MDCK-MDR1, 0 μM GF918, 120 min; (SEM)
Experimental: (§1) MDCK-MDR1 cells (Netherlands Cancer Institute) were seeded at a density of 3 × 10^5 cells per well onto microporous polycarbonate membranes in 12-well Costar Transwell plates (Corning, Inc.). The cells were incubated for 3 days during which time they formed confluent monolayers. Monolayer integrity was checked using a Millicell-ERS instrument (Millipore) to determine the transepithelial electrical resistance (TEER) across the monolayer. […] […] Competency of the P-gp efflux transporter was confirmed by assay of propranolol (nonsubstrate) and amprenavir (substrate). Cell monolayers were incubated in triplicate with shaking (160 rpm) at 37°C for 2 h. Samples were removed from the apical and basolateral compartments after incubation and assayed for test compound concentrations by LC-MS/MS.
(§2) Conditions were similar to those used for Caco-2 analyses. Differences included the use of a Phenomenex Synergi Hydro-RP column (4 μm, 2.1 × 50 mm) at 60°C, mobile phases of aqueous 0.2% formic acid (A) and neat methanol (B), and a rapid 0.9 min gradient from 0% to 95% B.

P-gp [6] = assay: MDCK-MDR1 efflux studies; type: in vitro ADME, canine; conditions: dog; for Papp B→A at 120 min, 5 µM: (SEM)
Experimental: as §1, §2

[7] = cited from earlier work
in vitro [8] = conditions: rat, intestinal S9 fraction
Experimental: as §3, §4

[9] = set-up: method as in ref 50 = [50]; 50 Center for Drug Evaluation and Research (2001) Clinical Pharmacology and Pharmaceutics Review Application Number 21-356, page 78 Available at: http://www.accessdata.fda.gov/drugsatfda_docs/nda/2001; conditions: rat, literature, normalized for dose; cited from earlier work
[10] = tested on: porcine pancrelipase (PL); assay: Hydrolysis of TDF by PL and effect of enzyme inhibitors; type: biochemical; conditions: pig, with none, Control, 10 μM TDF, PL, 37°C, no inhibitor, read-out: TDF t1/2
Experimental: TDF solutions were prepared at 10 μM and incubated in triplicate at 37°C in FaSSIF containing PL at 480 U/mL with and without inhibitors. Inhibitors were added at 10% vol/vol for the oils (sesame, olive, safflower, soybean, and coconut); at 10 mM for PP, MP, and EM1; and at 0.05 mM/0.002 mM for EDTA/PMSF. Controls consisted of TDF in transport media or FaSSIF with and without PL. Samples were incubated at 37°C and quenched with acetonitrile at 10, 15, 20, and 30 min. For each time point, the % TDF or % TFV-ME remaining was determined by LC-MS/MS as described below.

[11] = tested on: Caco-2 cell monolayers (P-gp); assay: in vitro; type: in vitro ADME; conditions: Caco-2, 10 μM TDF, 120 min, no inhibitor (CsA 0.00 µM)
Experimental: as §5, §6, §7

P-gp [12] = assay: in vitro; type: in vitro ADME; conditions: human, Caco-2, pH 7, with none (CsA 0.00 µM)
Experimental: as §5, §6, §7

human intestinal S9 = assay: TDF stability in human intestinal S9 fraction and effect of inhibitors; conditions: human S9 0.5 mg protein/mL, 10 μM TDF, 37°C, Buffer (no inhibitor)
Experimental: as §3, §4

[13] = dog, in vivo; cited from earlier work
in vitro [14] = conditions: human, intestinal S9 fraction
Experimental: as §3, §4

[15] = MDCK-MDR1, with none (0 µM GF918)

Structure (SMILES): CC(C)OC(=O)OCOP(=O)(CO[C@H](C)Cn1cnc2c(N)ncnc21)OCOC(=O)OC(C)C [TDF, Tenofovir disoproxil fumarate]
- TDF Rate Constant (rat intestinal S9): -1.200 min⁻¹
- half-life ([1]; pH 2.2, 37°C): > 150 h
- half-life ([1]; pH 7.4, 37°C): 8 h
- oral bioavailability of TFV [2]: 20%
- TDF oral bioavailability following a high fat meal ([3]; after high fat meal): 39%
- oral bioavailability of TFV ([3]; oral administration of TDF): under 30%
- % Measured Basolateral, TDF (median) (Caco-2 cell monolayers): 0.78%
- half-life at 10 µM ([4]; pig, porcine pancrelipase (PL) in FaSSIF, 10 μM, PL 480 U/mL): 2 ± 2.3 min
- stability in SGF and FaSSIF ([4]; without PL, up to 120 min, TDF 10 μM): stable
- half-life at 1 mM ([5]; FaSSIF pH 6.8, 37°C): 16.6 ± 3.4 h
- half-life at 1 mM ([5]; FaSSIF pH 9, 37°C): 2.9 ± 0.2 h
- half-life at 1 mM ([5]; FaSSIF pH 11, 37°C): 0.0567 ± 0.102 h
- half-life at 1 mM ([5]; SGF pH 1.2, 37°C): > 55 h
- Papp, B to A (MDCK-MDR1 cells (P-gp)): 295.0 (6.1) nm/s
- Papp A→B at 120 min, 5 µM (P-gp [6]; MDCK-MDR1, with GF918 2 µM): 2.25 ×10⁻⁶ cm/s
- efflux ratio at 2 h, 5 µM (P-gp [6]; MDCK-MDR1, with GF918 2 µM): 1.5
- Papp B→A at 120 min, 5 µM (P-gp [6]; MDCK-MDR1, with GF918 2 µM, MDCK-MDR1, 2 μM GF918, 120 min): 3.41 ×10⁻⁶ cm/s
- Papp A→B at 120 min, 5 µM (P-gp [6]; [15]): 0.67 ×10⁻⁶ cm/s
- efflux ratio at 2 h, 5 µM (P-gp [6]; [15]): 44.2
- Papp B→A at 120 min, 5 µM (P-gp [6]; MDCK-MDR1, with none (0 µM GF918), MDCK-MDR1, 0 μM GF918, 120 min): 29.5 ×10⁻⁶ cm/s
- pKa [7]: 3.75
- partition coefficient (log P) [7]: 1.25
- Biopharmaceutics Classification System class ([7]; high solubility and low permeability): class 3
- water solubility ([7]; room temperature): 15.3 mg/mL
- half-life at 10 µM (in vitro [8]): 0.58 ± 1.79 min
- AUC [9]: 1490 ng·h/mL
- half-life at 10 µM ([10]; porcine pancrelipase (PL) in FaSSIF, FaSSIF): 6.35 min
- half-life at 10 µM ([10]; porcine pancrelipase (PL) in transport media, transport media): 7.59 min
- TDF Papp, A to B [11]: 0.698 ×10⁻⁶ cm/s
- Papp A→B at 120 min, 10 µM (P-gp [12]; Caco-2, 10 μM TDF, 120 min, no inhibitor (CsA 0.00 µM)): 0.7 ×10⁻⁶ cm/s
- efflux ratio at 120 min, 10 µM (P-gp [12]; read-out: TDF E.R. (efflux ratio)): 12
- Papp B→A at 120 min, 10 µM (P-gp [12]; read-out: TDF Papp, B to A): 8.16 ×10⁻⁶ cm/s
- TDF Rate Constant (human intestinal S9): -1.123 min⁻¹
- oral bioavailability of TFV [13]: 30%
- half-life at 10 µM (in vitro [14]): 0.62 ± 1.29 min

Source: article PMC5320394, “Development of a Novel Formulation That Improves Preclinical Bioavailability of Tenofovir Disoproxil Fumarate” (Journal of Pharmaceutical Sciences, 2017)
